Laboratory results from PMC10206524 (European journal of medicinal chemistry, 2022).

Columns and labels:
Type in all cases: biochemical
human SIRT3 = target: T1, human SIRT3 (Homo sapiens, UniProt Q9NTG7); assay: Fluorescence-based inhibition assay, SIRT3; conditions: at the highest concentration of 400 μM
T1 sequence (Q9NTG7 1-399): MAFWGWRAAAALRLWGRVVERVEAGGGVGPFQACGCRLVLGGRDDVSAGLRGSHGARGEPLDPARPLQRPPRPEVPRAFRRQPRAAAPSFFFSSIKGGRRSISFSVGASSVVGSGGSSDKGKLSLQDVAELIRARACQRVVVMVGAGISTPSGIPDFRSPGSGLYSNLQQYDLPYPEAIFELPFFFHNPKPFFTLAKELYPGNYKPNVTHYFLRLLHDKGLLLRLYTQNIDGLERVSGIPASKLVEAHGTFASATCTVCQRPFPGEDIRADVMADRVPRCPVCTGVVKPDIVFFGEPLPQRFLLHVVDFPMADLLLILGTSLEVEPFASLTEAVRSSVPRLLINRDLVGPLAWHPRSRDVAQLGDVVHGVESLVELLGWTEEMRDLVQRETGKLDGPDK

human SIRT1 = target: T2, human SIRT1 (Homo sapiens, UniProt Q96EB6); assay: Fluorescence-based inhibition assay, SIRT1; conditions: at the highest concentration of 400 μM
T2 sequence (Q96EB6 1-747): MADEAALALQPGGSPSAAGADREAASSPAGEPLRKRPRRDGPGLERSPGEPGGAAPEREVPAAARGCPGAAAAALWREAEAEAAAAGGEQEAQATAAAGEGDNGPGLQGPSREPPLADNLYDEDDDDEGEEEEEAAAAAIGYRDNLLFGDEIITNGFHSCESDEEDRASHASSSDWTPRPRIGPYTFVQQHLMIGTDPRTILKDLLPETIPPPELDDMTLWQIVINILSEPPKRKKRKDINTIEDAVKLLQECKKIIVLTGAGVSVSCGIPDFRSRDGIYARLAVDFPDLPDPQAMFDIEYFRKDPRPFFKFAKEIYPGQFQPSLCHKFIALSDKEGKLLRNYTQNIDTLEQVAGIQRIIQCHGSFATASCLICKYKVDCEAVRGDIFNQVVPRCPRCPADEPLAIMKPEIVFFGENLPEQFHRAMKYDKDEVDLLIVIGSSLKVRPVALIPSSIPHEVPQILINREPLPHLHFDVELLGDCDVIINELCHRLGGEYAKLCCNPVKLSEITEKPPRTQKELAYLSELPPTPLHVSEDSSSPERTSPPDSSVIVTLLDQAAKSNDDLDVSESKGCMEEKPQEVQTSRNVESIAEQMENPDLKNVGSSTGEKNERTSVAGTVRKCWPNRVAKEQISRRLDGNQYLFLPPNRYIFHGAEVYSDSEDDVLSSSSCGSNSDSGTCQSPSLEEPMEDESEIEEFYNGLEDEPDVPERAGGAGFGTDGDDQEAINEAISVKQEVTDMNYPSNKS

human SIRT2 = target: T3, human SIRT2 (Homo sapiens, UniProt Q8IXJ6); assay: Fluorescence-based inhibition assay, SIRT2; conditions: at the highest concentration of 400 μM
T3 sequence (Q8IXJ6 1-389): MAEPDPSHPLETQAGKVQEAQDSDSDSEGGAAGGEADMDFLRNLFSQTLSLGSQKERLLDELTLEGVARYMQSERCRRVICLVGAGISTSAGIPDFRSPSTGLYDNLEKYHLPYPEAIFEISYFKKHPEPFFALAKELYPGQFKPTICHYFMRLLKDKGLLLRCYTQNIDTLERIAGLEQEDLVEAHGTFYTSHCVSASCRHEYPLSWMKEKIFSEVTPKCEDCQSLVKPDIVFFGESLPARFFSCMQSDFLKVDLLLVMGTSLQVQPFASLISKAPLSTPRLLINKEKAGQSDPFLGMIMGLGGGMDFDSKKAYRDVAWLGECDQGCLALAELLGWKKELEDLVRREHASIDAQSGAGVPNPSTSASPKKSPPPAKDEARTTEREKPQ

human SIRT5 = target: T4, human SIRT5 (Homo sapiens, UniProt Q9NXA8); assay: Trypsin coupled fluorescence-based inhibition assay, SIRT5; conditions: for fold increased potency against SIRT5 in comparison with 11: more potent than hit 11
T4 sequence (Q9NXA8 37-310): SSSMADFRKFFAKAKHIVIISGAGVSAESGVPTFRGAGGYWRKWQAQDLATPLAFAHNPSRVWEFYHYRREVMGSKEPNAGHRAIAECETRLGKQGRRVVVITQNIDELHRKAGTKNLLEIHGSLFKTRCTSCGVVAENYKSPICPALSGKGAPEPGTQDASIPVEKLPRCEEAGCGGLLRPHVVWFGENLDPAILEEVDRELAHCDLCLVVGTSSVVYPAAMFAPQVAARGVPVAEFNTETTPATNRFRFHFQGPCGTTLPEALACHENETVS

## CC(=O)Nc1ccc(-c2csc(Nc3ccc(C(=O)O)c(O)c3)n2)cc1 [Compound 11, 4-((4-(4-acetamidophenyl)thiazol-2-yl)amino)-2-hydroxybenzoic acid]
Human SIRT3
  inhibition against SIRT3: no inhibitions
Human SIRT1
  inhibition against SIRT1: no inhibitions
Human SIRT2
  inhibition against SIRT2: no inhibitions

## CC(=O)Nc1ccc(-c2csc(Nc3ccc(C(=O)O)cc3)n2)cc1 [Compound 13, 4-((4-(4-acetamidophenyl)thiazol-2-yl)amino)benzoic acid]
Human SIRT5; less potent than hit 11
  fold less potent than 11 against SIRT5: about 8 fold

## CC(=O)Nc1ccc(-c2csc(NC(=S)Nc3ccc(C(=O)O)c(O)c3)n2)cc1 [Compound 14, 4-(3-(4-(4-acetamidophenyl)thiazol-2-yl)thioureido)-2-hydroxybenzoic acid]
Human SIRT3
  inhibition against SIRT3: no inhibition
Human SIRT5
  fold increased potency against SIRT5 in comparison with 11: 2 fold
Human SIRT1
  inhibition against SIRT1: no inhibition
Human SIRT2
  inhibition against SIRT2: no inhibition

## O=C(O)c1ccc(NC(=S)Nc2nc(-c3ccc([N+](=O)[O-])cc3)cs2)cc1O [Compound 30, 2-hydroxy-4-(3-(4-(4-nitrophenyl)thiazol-2-yl)thioureido)benzoic acid]
Human SIRT5
  fold increased potency against SIRT5 in comparison with 11: 6 fold

## O=C(O)c1ccc(NC(=S)Nc2nc(-c3ccc([N+](=O)[O-])c(S(=O)(=O)NCc4ccccc4)c3)cs2)cc1O [Compound 43, 4-(3-(4-(3-(N-benzylsulfamoyl)-4-nitrophenyl)thiazol-2-yl)thioureido)-2-hydroxybenzoic acid]
Human SIRT3
  inhibition against SIRT3: no inhibition
Human SIRT5
  fold increased potency against SIRT5 in comparison with 11: 10 fold
Human SIRT1
  inhibition against SIRT1: no inhibition
Human SIRT2
  inhibition against SIRT2: no inhibition
